Structures can show the parent of a compound that is named as a salt.
What was measured:
[1] = test system: platelet aggregation induced by PAF in rabbit platelets; experiment: Inhibition of platelet aggregation induced by PAF (Test 1); format: cell-based, male New Zealand albino rabbits; settings: concentration needed to inhibit platelet aggregation by 50%, PAF 16 nM final, rabbit platelet rich plasma
Method: Test 1: Inhibition of Platelet Aggregation Induced by PAF.
The blood is obtained by cardiac puncture of male New Zealand albino rabbits (between 2 and 2.5 Kg of weight) and coagulation is prevented by adding 1 part of 3.16% sodium citrate dihydrate in 9 parts of blood. The platelet rich plasma (PRP) is prepared by blood centrifugation at 250 xg for 10 min. at 4° C. and it is diluted with platelet poor plasma (PPP) obtained by additional centrifugation at […] for 10 min. The amount of platelets is adjusted to […]. The platelet aggregation induced by PAF (C18, prepared in our laboratory) (16 nM, final) is determined by the Born nephelometric technique (J. Physiol., 1962, 162, 67) using a aggregometer Chronolog 500. The activities of the inhibitors are expressed as IC50, that is to say the concentration of the drug needed to inhibit the platelet aggregation in a 50%.

[2] = test system: hypotension induced by PAF; experiment: Inhibition of the hypotensive effect induced by PAF in normotense rats (Test 2); format: in vivo, Male Sprague Dawley rats; settings: i.v., 3 min before PAF (0.5 mg/Kg, i.v.), anesthetized rats
Method: Test 2--Inhibition of the Hypotensive Effect Induced by PAF in normotense Rats.
(§1) Male Sprague Dawley rats, of 180-220 g of weight, anesthetized with sodium pentobarbital (50 mg/Kg, i.p. 1 mL/100 g) have been used. In order to measure the average arterial pressure, a polyethylene catheter is introduced into the carotide artery. The arterial pressure is recorded with the help of a transducer connected with a R611 Beckman polygraph. The tested compounds are administrated through the femoral vein 3 min. Before the injection of PAF (0.5 mg/Kg, i.v.).

[3] = test system: hypotension induced by PAF; experiment: Reversion of the hypotensive effect induced by PAF in normotense rats (Test 3); format: in vivo, Male Sprague Dawley rats; settings: Rattus norvegicus, iv, 1 min; i.v., 1 min after the injection of PAF; read-out: ID50, dose required to reduce in a 50% the time of recovery of the basal blood pressure
Method: as §1
Test 3--Reversion of the Hypotensive Effect Induced by PAF in Normotense Rats
The experimental design is similar to that of test 2, except in that the compound to be tested is given by intravenous injection 1 min. After the injection of PAF. In the controls the blood pressure recovers 80% of the basal level 6.2 min. after the injection of PAF. The effect of the tested compounds is expressed as the dose required to reduce in a 50% the time of recovery of the basal blood pressure (ID50).

[4] = Oryctolagus cuniculus, Platelet

Row | SMILES | IC50 [1, 4] [µM] | % Inhibition of the hypotension induced by PAF ([2]; compound 5 mg/Kg) [%] | other results
1 | CCCCCCCCCCCCCCCCCC1OCC(COCCCC[n+]2ccccc2)O1 (racemic) [Compound 1, (±)-cis, trans-1[4-[(2-heptadecyl-1,3-dioxolane-4-yl)methoxy]butyl]piridinium 4-methylbenzenesulphonate] | 5.5 | 24 | 
2 | CCCCCCCCCCCCCCCCCC1OCC(COCCCC[n+]2ccsc2)O1 (racemic) [Compound 5, (±)-cis, trans-3-[4-[(2-heptadecyl-1,3-dioxolane-4-yl)methoxy]butyl)thiazolium iodide] |  |  | IC50 [1]: 5 µM
3 | CCCCCCCCCCCCCCCCCC1OCC(COCCCCCC[N+]2(C)CCOCC2)O1 (racemic) [Compound 9, (±)-cis, trans-4-[6-[(2-heptadecyl-1,3-dioxolane-4-yl)methoxy]hexyl]-4-methylmorpholinium 4-methylbenzenesulfonate] | 18 |  | 
4 | CCCCCCCCCCCCCCCCCC1OCC(COCCCCCC[N+](C)(C)C)O1 (racemic) [Compound 10, (±)-cis, trans-6-[(2-heptadecyl-1,3-dioxolane-4-yl)methoxy]-N,N,N-trimethyl-1-hexanaminium 4-methylbenzenesulfonate] | 5.5 |  | 
5 | CCCCCCCCCCCCCCCCCC1OCC(COCCCCCC[n+]2cccc3ccccc32)O1 (racemic) [Compound 11, (±)-cis, trans-1-[6-(2-heptadecyl-1,3-dioxolane-4-yl)methoxy]hexyl]quinolinium 4-methylbenzenesulfonate] | 3.9 |  | 
6 | CCCCCCCCCCCCCCCCCC1OCC(COCCCCCC[n+]2csc3ccccc32)O1 (racemic) [Compound 12, (±)-cis, trans-3-[6-[(2-heptadecyl-1,3-dioxolane-4-yl)methoxy]hexyl]benzothiazolium4-methylbenzenesulfonate] | 16 |  | 
7 | CCCCCCCCCCCCCCCCCC1OCC(COCCCCCCCC[n+]2ccccc2)O1 (racemic) [Compound 20, (±)-cis, trans-1-[8-[(2-heptadecyl-1,3-dioxolane-4-yl)methoxy]octyl]pyridinium 4-methylbenzenesulfonate] | 14 |  | 
8 | CCCCCCCCCCCCCCCCCC1OCC(COC(=O)CCCCC[n+]2ccccc2)O1 (racemic) [Compound 24, (±)-cis, trans-1-[6-[(2-heptadecyl-1,3-dioxolane-4-yl)methoxy]-6-oxohexyl]pyridinium 4-methylbenzenesulfonate] | 2.6 | 72 | % Inhibition of the hypotension induced by PAF ([2]; compound 2.5 mg/Kg): 58%
9 | CCCCCCCCCCCCCCCCCC1OCC(COC(=O)CCCCC[n+]2cscc2C)O1 (racemic) [Compound 26, (±)-cis, trans-3-[6-[(2-heptadecyl-1,3-dioxolane-4-yl)methoxy]-6-oxohexyl]-4-methylthiazolium 4-methylbenzenesulfonate] | 2.5 |  | 
10 | CCCCCCCCCCCCCCCCCC1OCC(COC(=O)CCCCC[N+]2(C)CCOCC2)O1 (racemic) [Compound 30, (±)-cis, trans-4-[6-[(2-heptadecyl-1,3-dioxolane-4-yl)methoxy]-6-oxohexyl]-4-methylmorpholinium 4-methylbenzenesulfonate] | 21 |  | 
11 | CCCCCCCCCCCCCCCCCC1OCC(COC(=O)CCCCC[N+](C)(C)C)O1 (racemic) [Compound 31, (±)-cis, trans-6-[(2-heptadecyl-1,3-dioxolane-4-yl)methoxy]-6-oxo-N,N,N-trimethyl-1-hexanaminium 4-methylbenzenesulfonate] | 7.8 |  | 
12 | CCCCCCCCCCCCCCCCCC1OCC(COC(=O)CCCCC[n+]2cccc3ccccc32)O1 (racemic) [Compound 32, (±)-cis, trans-1-[6-[(2-heptadecyl-1,3-dioxolane-4-yl)methoxy]-6-oxohexyl]quinolinium 4-methylbenzenesulfonate] | 2.5 | 80 | 
13 | CCCCCCCCCCCCCCCCCC1OCC(COP(=O)([O-])OCC[N+](C)(C)C)O1 (racemic) [Compound 47, (±)-cis, trans-2-[[[(2-heptadecyl-1,3-dioxolane-4-yl)methoxy]hydroxyphosphinyl]oxy]-N,N,N-trimethylethanaminium hydroxide, inner salt] | 180 |  | 
14 | CCCCCCCCCCCCCCCCCC1OCC(COP(=O)([O-])OCC[n+]2ccccc2)O1 (racemic) [Compound 48, (±)-cis, trans-1-[2-[[[(2-heptadecyl-1,3-dioxolane-4yl)methoxy]hydroxyphosphinyl]oxy]ethyl]pyridinium hydroxide, inner salt] | 180 |  | 

Second part, led by results:

Row | IC50 [1, 4] [µM] | SMILES | % Inhibition of the hypotension induced by PAF ([2]; compound 5 mg/Kg) [%] | other results
15 | 6 | CCCCCCCCCCCCCCCCCC1OCC(COCCCC[n+]2ccsc2)O1 (racemic) [Compound 2, (±)-cis, trans-3-[4-[(2-heptadecyl-1,3-dioxolane-4-yl)methoxy]butyl]thiazolium 4-methylbenzenesulfonate] |  | 
16 | 3.3 | CCCCCCCCCCCCCCCCCC1OCC(COCCCCCC[n+]2ccccc2)O1 (racemic) [Compound 6, (±)-cis, trans-1-[6-[(2-heptadecyl-1,3-dioxolane-4-yl)methoxy]hexyl]pyridinium 4-methylbenzenesulfonate] | 42 | 
17 | 3.1 | CCCCCCCCCCCCCCCCCC1OCC(COCCCCCC[n+]2cscc2C)O1 (racemic) [Compound 7, (±)-cis, trans-3-[6-[(2-heptadecyl-1,3-dioxolane-4-yl)methoxy]hexyl]-4-methylthiazolium 4-methylbenzenesulfonate] |  | 
18 | 1.4 | CCCCCCCCCCCCCCCCCC1OCC(COCCCCCC[n+]2ccsc2)O1 (racemic) [Compound 8, (±)-cis, trans-3-[6-[(2-heptadecyl-1,3-dioxolane-4-yl)methoxy]hexyl]thiazolium 4-methylbenzenesulfonate] | 88 | % Inhibition of the hypotension induced by PAF ([2]; compound 1.25 mg/Kg): 46%; % Inhibition of the hypotension induced by PAF ([2]; compound 2.5 mg/Kg): 75%; ED50 [3]: 0.3 mg/kg
19 | 5.1 | CCCCCCCCCCCCCCCCCC1OCC(COCCCCCCCC[n+]2ccsc2)O1 (racemic) [Compound 22, (±)-cis, trans-3-[8-[(2-heptadecyl-1,3-dioxolane-4-yl)methoxy]octyl]thiazolium 4-methylbenzenesulfonate] |  | 
20 | 1.3 | CCCCCCCCCCCCCCCCCC1OCC(COC(=O)CCCCC[n+]2ccsc2)O1 (racemic) [Compound 27, (±)-cis, trans-3-[6-[(2-heptadecyl-1,3-dioxolane-4-yl)methoxy]-6-oxohexyl]thiazolium 4-methylbenzenesulfonate] | 100 | % Inhibition of the hypotension induced by PAF ([2]; compound 0.63 mg/Kg): 28%; % Inhibition of the hypotension induced by PAF ([2]; compound 1.25 mg/Kg): 75%; ED50 [3]: 0.16 mg/kg
